Laboratory results as given in US8492428B2 (priority 2005, dated 2013).
Entries after “also recorded” stand apart in the source; their conditions may differ. Read-outs that look alike come from different tables or passages of the source.

Tests used:
[1] = target: endopeptidase (LC) of botulinum neurotoxin serotype A (BoNTA) (Clostridium botulinum, UniProt P0DPI0); test: biochemical; conditions: for inhibition at 100 µM: read-out: % Inhibition at 100 μM, BoNTA LC
[2] = target: endopeptidase (LC) of botulinum neurotoxin serotype B (BoNTB) (Clostridium botulinum, UniProt P10844); test: biochemical; assay type: biochemical; conditions: for inhibition at 100 µM: read-out: % Inhibition at 100 μM, BoNTB LC
BoNTA light chain = BoNTA light chain (Clostridium botulinum, UniProt P0DPI0); test: biochemical
Chain of BoNTA light chain (P0DPI0 2-448 limits assumed): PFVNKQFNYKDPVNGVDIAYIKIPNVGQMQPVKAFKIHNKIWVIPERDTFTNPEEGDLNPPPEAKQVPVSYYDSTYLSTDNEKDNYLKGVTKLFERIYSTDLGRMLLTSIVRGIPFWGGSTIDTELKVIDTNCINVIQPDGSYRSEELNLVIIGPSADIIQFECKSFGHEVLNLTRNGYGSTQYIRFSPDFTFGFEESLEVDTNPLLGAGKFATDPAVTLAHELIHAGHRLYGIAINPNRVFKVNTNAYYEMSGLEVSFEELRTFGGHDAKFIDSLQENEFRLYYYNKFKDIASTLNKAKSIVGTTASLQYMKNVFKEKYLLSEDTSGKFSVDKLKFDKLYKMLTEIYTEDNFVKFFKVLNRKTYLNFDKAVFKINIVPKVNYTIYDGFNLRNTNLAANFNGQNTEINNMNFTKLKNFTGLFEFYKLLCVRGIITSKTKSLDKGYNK

Chain of endopeptidase (LC) of botulinum neurotoxin serotype A (BoNTA) (P0DPI0 2-448 limits assumed): as above
Chain of endopeptidase (LC) of botulinum neurotoxin serotype B (BoNTB) (P10844 2-441 limits assumed): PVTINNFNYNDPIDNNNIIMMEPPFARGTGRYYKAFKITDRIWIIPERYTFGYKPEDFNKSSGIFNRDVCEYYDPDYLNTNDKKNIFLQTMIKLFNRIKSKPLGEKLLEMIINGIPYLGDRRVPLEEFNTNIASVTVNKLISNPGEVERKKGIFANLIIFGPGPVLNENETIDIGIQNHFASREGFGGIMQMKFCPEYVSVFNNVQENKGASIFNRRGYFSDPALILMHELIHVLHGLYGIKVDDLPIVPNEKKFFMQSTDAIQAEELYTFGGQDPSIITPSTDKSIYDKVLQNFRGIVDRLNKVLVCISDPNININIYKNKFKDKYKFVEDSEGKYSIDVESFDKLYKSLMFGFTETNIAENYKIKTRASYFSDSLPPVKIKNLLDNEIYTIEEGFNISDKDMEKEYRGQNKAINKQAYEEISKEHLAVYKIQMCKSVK

Row | SMILES | inhibition at 100 µM [1] [%] | inhibition of the endopeptidase of BoNTA, in words (comparisons) [1] | inhibition at 100 µM [2] [%] | melting point | other results
1 | O=C(O)Cc1cc(C(=O)c2ccc(Cl)cc2)sc1-c1ccccc1 [Compound 1, [5-(4-Chlorobenzoyl)-2-phenylthiophene-3-yl]acetic acid] | 15 |  |  |  | 
2 | O=C(Cc1cc(C(=O)c2ccc(Cl)cc2)sc1-c1ccccc1)NO [Compound 2, 2-[5-(4-Chlorobenzoyl)-2-phenylthiophene-3-yl]-N-hydroxyacetamide] | 30 | more active in inhibiting the endopeptidase than 1 | 0 |  | effect on the endopeptidase of BoNTB, in words [2]: no effect
3 | Nc1cc(C(=O)c2cc(CC(=O)NO)c(-c3ccccc3)s2)ccc1I [Compound 4, 2-[5-(3-Amino-4-iodobenzoyl)-2-phenylthiophene-3-yl]-N-hydroxyacetamide] | 40 | more active in inhibiting the endopeptidase than 2 | 0 | > 170 °C (dec.) | effect on the endopeptidase of BoNTB, in words [2]: no effect
4 | O=C(Cc1cc(C(=O)c2ccc(I)c([N+](=O)[O-])c2)sc1-c1ccccc1)NO [Compound 5, 2-[5-(3-Nitro-4-iodobenzoyl)-2-phenylthiophene-3-yl]-N-hydroxyacetamide] |  |  |  | 147 to 151 °C | 
5 | NNC(=O)Cc1cc(C(=O)c2ccc(Br)cc2)sc1-c1ccccc1 [Compound 6, [5-(4-Bromobenzoyl)-2-phenylthiophene-3-yl]acetic acid hydrazide] |  |  |  | 157 to 161 °C | 
6 | NNC(=O)Cc1cc(C(=O)c2ccc(I)c(N)c2)sc1-c1ccccc1 [Compound 7, [5-(3-Amino-4-iodobenzoyl)-2-phenylthiophene-3-yl]acetic acid hydrazide] |  |  |  | 159 to 165 °C | 
7 | O=C(O)Cc1cc(C(=O)c2ccc3cc(-c4ccccc4)[nH]c3c2)sc1-c1ccccc1 [Compound 8, [2-Phenyl-5-(2-phenyl-1H-indole-6-carbonyl)thiophene-3-yl]acetic acid] |  | less potent in inhibiting the endopeptidase than 1 and 2 |  |  | 
8 | O=C(Cc1cc(C(=O)c2ccc3cc(-c4ccccc4)[nH]c3c2)sc1-c1ccccc1)NO [Compound 9, N-Hydroxy-2-[2-phenyl-5-(2-phenyl-1H-indole-6-carbonyl)thiophene-3-yl]acetamide] |  | less potent in inhibiting the endopeptidase than 1 and 2 |  |  | 
9 | Cl.NCCCCn1c(-c2ccccc2)cc2ccc(C(=O)c3cc(CC(=O)NO)c(-c4ccccc4)s3)cc21 [Compound 12, 2-{5-[1-(4-Aminobutyl)-2-phenyl-1H-indole-6-carbonyl]-2-phenylthiophene-3-yl}-N-hydroxyacetamide hydrochloride] | 96 |  | 0 |  | effect of adding more zinc on the inhibition of BoNTA [1]: no effect; inhibition at 15 µM ([1]; read-out: % inhibition of BoNTA at 15 μM): 48%; effect on the endopeptidase of BoNTB, in words ([2]; hydrochloride): no effect; also recorded: did not inhibit; Ki (BoNTA light chain): 12 ± 2.6 µM
